{"source": "patent US20140248292A1", "about": "“COMPOSITIONS AND METHODS FOR TREATING CANCER” (priority 2013, published 2014)", "key": {"[1]": {"test_system": "mucinous tumor tissue (PMP-2, PMCA-2, PMP-3, PMP-6)", "assay": "Ex vivo PARP cleavage, Western immunoblot", "type": "cell-based, human", "conditions": "24 h, PMP-2 xenograft tissue and both patient samples", "description": "The mucinous cell suspension was seeded in 48-well plates (500 μl/well). […] Thereafter, the cells were lysed by using an SDS boiling method as described previously (Andersson2009). In brief, cell pellets were resuspended in lysis buffer (2% SDS, 1 mM Na3VO4, and 10 mM Tris-Cl (pH 7.6)), which was held at 100° C. when added, and the lysates were boiled for 5 min. After six passages through a 20G syringe on ice, the lysates were cleared by centrifugation. Protein concentrations were then determined using the BCA (bicinchoninic acid) protein assay (Pierce, Rockford, Ill.). The lysates were snap frozen in liquid N2 and kept at −70° C. A portion (15 μg) of each protein lysate was fractionated by 4-12% NuPAGE Bis-Tris gel electrophoresis (Invitrogen, Carlsbad, Calif.), and subsequently transferred by electroblotting to Immobilon membranes (Millipore, Bedford, Mass.). The filters were probed with an anti-PARP antibody (Roche Diagnostics, Mannheim, Germany), anti-EpCAM (MOC31, IQ Corporation, Groningen, the Netherlands) or with anti-alpha tubulin (Calbiochem, La Jolla, Calif.). Immune complexes were detected with an appropriate HRP-coupled secondary antibody. Peroxidase activity was visualized with […] (Amersham Pharmacia Biotech, Buckinghamshire, UK). The western blots were probed with anti-α-tubulin antibody to confirm equal loading and transfer of samples."}, "[2]": {"test_system": "orthotopic models of mucinous peritoneal surface malignancies", "assay": "In vivo tumor growth, orthotopic models of mucinous peritoneal surface malignancies (model not singled out)", "conditions": "all models; 10 mg/kg i.p."}, "[3]": {"test_system": "PMP-2 model", "assay": "In vivo tumor growth, orthotopic PMP-2 model, single injection"}, "[4]": {"test_system": "PMP-1 model", "assay": "In vivo tumor growth, orthotopic PMP-1 model, single i.p. injection", "conditions": "both tested doses (2.5 and 5 mg/kg i.p.)"}, "[5]": {"test_system": "PMCA-1 model", "assay": "In vivo tumor growth, orthotopic PMCA-1 model, single i.p. injection", "conditions": "5 mg/kg vs 2.5 mg/kg i.p."}, "[6]": {"test_system": "2774 ovarian peritoneal carcinomatosis", "assay": "2774 ovarian peritoneal carcinomatosis mouse model", "type": "in vivo", "conditions": "2774 model; treatment initiated on day 2", "description": "The therapeutic potential of intraperitoneal administration of MOC31PE was then investigated in two experimental mouse models based on the ovarian cancer cell lines B76 (FIG. 15) and 2774 (FIG. 16). The animals were divided into three groups. Day 1 the animals were intraperitoneal injected with B76 cancer cell to mimic the situation in patients after cytoreductive surgery, were non-visible cancer cells are still left. MOC31PE treatment was initiated the day after (Day 2) or on day 8, as indicated by giving either MOC31PE 50 μg/kg intraperitoneal injection (i.p.) or 32 μg/kg intravenous injection (i.v.). […] Disease progression, as increase of abdominal size and other signs of symptoms, were measured twice weekly. Body weight was recorded throughout the experiments. Survival as a function of treatment was analysed by Kaplan-Meier plots."}}, "data": [{"molecule": "pseudomonas exotoxin A [PE toxin]", "values": [{"measurement": "PARP cleavage / PARP inactivation (Western immunoblot)", "setting": "[1]", "value": "No PARP inactivation was evident"}]}, {"molecule": "O=C1[O][Pt]2([NH][C@@H]3CCCC[C@H]3[NH]2)[O]C1=O", "note": "[Oxaliplatin, oxaliplatin]", "values": [{"measurement": "growth inhibition (growth indices) compared to vehicle-treated animals", "setting": "[2]", "value": "only slight reduction of growth indices"}]}, {"molecule": "CO[C@@]12[C@H](COC(N)=O)C3=C(C(=O)C(C)=C(N)C3=O)N1C[C@@H]1N[C@@H]12", "note": "[Mitomycin C, mitomycin C]", "values": [{"measurement": "inhibition of tumor growth", "setting": "[3]; all tested doses, single i.p.", "value": "substantial inhibition of tumor growth"}, {"measurement": "tumor growth within the observation period", "setting": "[3]; both tested doses (2.5 and 5 mg/kg i.p.)", "value": "almost completely inhibited tumor growth"}, {"measurement": "tumor growth within the observation period", "setting": "[4]", "value": "almost completely inhibited tumor growth"}, {"measurement": "efficacy, comparison of doses", "setting": "[5]", "value": "5 mg/kg was more efficacious than 2.5 mg/kg"}]}, {"molecule": "CC(=O)O[C@H]1C(=O)[C@@]2(C)[C@H]([C@H](OC(=O)c3ccccc3)[C@]3(O)C[C@H](OC(=O)[C@H](O)[C@@H](NC(=O)c4ccccc4)c4ccccc4)C(C)=C1C3(C)C)[C@]1(OC(C)=O)CO[C@@H]1C[C@@H]2O", "note": "[Ptx, Paclitaxel]", "values": [{"measurement": "survival / disease progression, combinatorial treatment experiment", "setting": "[6]", "value": "significant effect on disease progression"}]}]}
